Data set [1] concerns T1, Enterococcus faecalis ATCC29212.
T1 construct: ATCC 29212
The data set can be described thus: microbe, parasite or virus in culture. Also noted: CLSI agar dilution MIC, bacterial growth inhibition. From the text:
(§1) In accordance with the standards of the Clinical and Laboratory Standards Institute (CLSI),^1 the agar dilution method was used to determine the minimum inhibitory concentration (MIC). E. coli ATCC 25922 served as a quality control for antibiotic susceptibility testing. The tested antimicrobial agents included spectinomycin, tobramycin, streptomycin, netilmicin, paromomycin and amikacin (Table 2).

Data set [2] deals with T2, Escherichia coli ACTT25922.
T2 construct: ATCC 25922
Nature of the data set: microbe, parasite or virus in culture. Also noted: CLSI agar dilution MIC, bacterial growth inhibition.
Source text: as §1

The test system of data set [3] is CN[C@@H]1[C@H](O)[C@H](NC)[C@H]2O[C@@]3(O)C(=O)C[C@@H](C)O[C@H]3O[C@@H]2[C@H]1O. The data set can be described thus: purified protein. Type of data set: biochemical, Providencia rettgeri. Particulars: 2 mM ATP, 10 mM MgCl2, 50 mM HEPES pH 7.5, 500 μM DTT, 37 °C.

In brackets after ≈: the same amount, converted by molar mass.

As for `O=C(N[C@H](CO)[C@H](O)c1ccc([N+](=O)[O-])cc1)C(Cl)Cl` [chloramphenicol], the MIC in data set [1] and in data set [2] was 4 µg/mL (≈ 12.4 µM) in each case.

For the molecule ANT(9)-Id (Providencia rettgeri), in data set [3], the Km stood at 8.94 ± 2.50 µM, the kcat was 232 ± 59.8 s⁻¹ and the kcat/Km amounted to 2.62e+07 ± 2.95e+06 M⁻¹ s⁻¹.

On to `CC(C)(O/N=C(\C(=O)N[C@@H]1C(=O)N2C(C(=O)[O-])=C(C[n+]3ccccc3)CS[C@H]12)c1csc(N)n1)C(=O)O` [ceftazidime], for which the MIC in data set [1] was 128 µg/mL (≈ 234 µM); in data set [2] it was at most 1 µg/mL.

Consider `CC(=O)c1c(C)[n+]([O-])c2ccccc2[n+]1[O-]` [mequindox], for which the MIC in data set [1] worked out at 64 µg/mL (≈ 293 µM); in data set [2], 8 µg/mL (≈ 36.7 µM).

For the molecule `C[C@H]1c2cccc(O)c2C(=O)C2=C(O)[C@]3(O)C(=O)C(C(N)=O)=C(O)[C@@H](N(C)C)[C@@H]3[C@@H](O)[C@@H]21` [doxycycline], the MIC in data set [1] turned out to be 4 µg/mL (≈ 9 µM); in data set [2], 1 µg/mL (≈ 2.25 µM).

On to `CN[C@@H]1[C@H](O[C@H]2[C@H](O[C@H]3[C@H](O)[C@@H](O)[C@H](N=C(N)N)[C@@H](O)[C@@H]3N=C(N)N)O[C@@H](C)[C@]2(O)C=O)O[C@@H](CO)[C@H](O)[C@H]1O` [streptomycin], for which the MIC in data set [1] turned out to be 128 µg/mL (≈ 220 µM); in data set [2] it was 8 µg/mL (≈ 13.8 µM).

`CN(C)[C@@H]1C(O)=C(C(N)=O)C(=O)[C@@]2(O)C(O)=C3C(=O)c4c(O)cccc4[C@@](C)(O)[C@H]3C[C@@H]12` [tetracycline]: the MIC in data set [1] was found to be 8 µg/mL (≈ 18 µM); in data set [2], 1 µg/mL (≈ 2.25 µM).

Turning to `C=C[C@]1(C)C[C@@H](OC(=O)CSCCN(CC)CC)[C@]2(C)[C@H](C)CC[C@]3(CCC(=O)[C@H]32)[C@@H](C)[C@@H]1O` [tiamulin], the MIC was 64 µg/mL (≈ 130 µM) in data set [1] and over 512 µg/mL in data set [2].

The values above are taken from PMC11669914, “Identification and characterization of a novel chromosome-encoded aminoglycoside O-nucleotidyltransferase gene, ant(9)-Id, in Providencia sp. TYF-12 isolated from the marine fish intestine” (Frontiers in Microbiology, 2024).
